Results taken from patent US20050192547A1, “Combinations of antiseptic and antibiotic agents containing medical devices” (priority 2002, published 2005).
≈ marks a conversion by molar mass, not a printed value. Read-outs that look alike come from different tables or passages of the source.

Legend:
S. epidermidis [1] = test: microbe, parasite or virus in culture; assay type: cell-based, Staphylococcus epidermidis; details: for MIC: Staphylococcus epidermidis
S. epidermidis [2] = test: Minimum inhibitory concentration in Trypticase Soy Broth, synergy (fractional inhibitory concentration); assay type: cell-based, Staphylococcus epidermidis
[3] = tetrahydrofuran/methanol solvent systems
[4] = after 10-20 passages, inoculum 10^4 cfu/ml
[5] = after 10 transfers, inoculum 10^6 cfu/ml
[6] = Staphylococcus epidermidis, inoculum of 10^4 cfu/ml, read-out: MIC

Row | Molecule | MIC (S. epidermidis [1]; read-out: MIC AFTER PASSAGE) [µg/mL] | INCREASE IN MIC (S. epidermidis [1]; [4]) | MIC (S. epidermidis [1]; read-out: MIC BEFORE PASSAGE) [µg/mL] | further results
1 | CC(=O)O.CC(=O)O.NC(=N\CCCCCC/N=C(N)/N=C(\N)Nc1ccc(Cl)cc1)/N=C(\N)Nc1ccc(Cl)cc1 [Chlorhexidine (CHX), chlorhexidine diacetate] |  |  |  | INCREASE IN MIC (S. epidermidis [1]): 2 fold; MIC AFTER PASSAGE (S. epidermidis [1]): 1.0 µg/mL; MIC BEFORE PASSAGE (S. epidermidis [1]): 0.5 µg/mL; MIC (S. epidermidis [2]; inoculum of 10^4 cfu/ml): 0.5 µg/mL
2 | CN(C)c1ccc(O)c2c1C[C@H]1C[C@H]3[C@H](N(C)C)C(O)=C(C(N)=O)C(=O)[C@@]3(O)C(O)=C1C2=O [Minocycline (M), minocycline] | 0.156 (≈ 0.341 µM) | 2 fold |  | INCREASE IN MIC (S. epidermidis [1]; [5]): 4 fold; MIC (S. epidermidis [2]; [6]): 0.078 µg/mL
3 | CCn1cc(C(=O)O)c(=O)c2cc(F)c(N3CCNCC3)cc21 [Norfloxacin (Nf), norfloxacin] | 2 (≈ 6.26 µM) | 40 fold |  | MIC (S. epidermidis [2]; [6]): 0.05 µg/mL; upper limit incorporated owing to low solubility [3]: about 0.5 percent (w/v)
4 | CO[C@H]1/C=C/O[C@@]2(C)Oc3c(C)c(O)c4c(O)c(c(/C=N/N5CCN(C)CC5)c(O)c4c3C2=O)NC(=O)/C(C)=C\C=C\[C@H](C)[C@H](O)[C@@H](C)[C@@H](O)[C@@H](C)[C@H](OC(C)=O)[C@@H]1C [Rifampin (R), rifampin] | 500 (≈ 608 µM) | 25,000 fold | 0.0195 (≈ 0.0237 µM) | 
5 | NC[C@H]1O[C@H](O[C@H]2[C@H](O)[C@@H](O[C@H]3O[C@H](CO)[C@@H](O)[C@H](N)[C@H]3O)[C@H](N)C[C@@H]2N)[C@H](N)C[C@@H]1O [Tobramycin (Tb), tobramycin] | 0.5 (≈ 1.07 µM) | 20 fold | 0.025 (≈ 0.0535 µM) | 
6 | Oc1cc(Cl)ccc1Oc1ccc(Cl)cc1Cl [Triclosan (T), triclosan] | 2.5 (≈ 8.63 µM) | 7 fold | 0.35 (≈ 1.21 µM) | INCREASE IN MIC (S. epidermidis [1]; [5]): 7 fold; MIC (S. epidermidis [2]; Staphylococcus epidermidis): 0.35 µg/mL
7 | polyhexamethylenebiguanide [PHMB] |  |  |  | INCREASE IN MIC (S. epidermidis [1]): 1.0 fold; MIC AFTER PASSAGE (S. epidermidis [1]): 0.31 µg/mL; MIC BEFORE PASSAGE (S. epidermidis [1]): 0.31 µg/mL
